Laboratory results: patent US20190083437A1, “S- Methylcysteine Sulfoxide For Prostate Cancer Prevention And Treatment” (QUADRAM INSTITUTE BIOSCIENCE, priority 2016, published 2019)

Experiments:
[1] = tested on: human prostatic PNT1A cell line; assay: ATP levels in prostate cell assay (fluorimetric kit); assay type: cell-based; details: SMCSO 100 μM or 200 μM, 24 hours exposure, vs control cells
Method: The concentration of S-methylsulfoxide used in this study (100 μmol to 200 μmop was similar to that found in urine following consumption of 1.0-1.5 mmoles of S-methylcysteine sulfoxide.
Cells of the human prostatic PNT1A cell line were incubated with SMCSO at 100 μM or 200 μM, these concentrations were chosen as they were consistent with the physiological concentrations of SMCSO measured in the human intervention diet study, for example 2-4 hours after consumption of Beneforté™ broccoli soup the concentration of SMCSO in the urine of study subjects ranged from 42.18 μM to 130.17 μM, see Table 1. ATP levels (nmol/mg protein) in control and SMCSO treated cells were measured fluorimetrically using a commercially available kit (Abcam, ab 8335).

[2] = within 24 h, radioactive SMCSO to humans; cited from earlier work
[3] = tested on: prostate tissue; assay: Short duration (4-6 weeks) diet intervention study: SMCSO and ADP in prostate biopsy tissue; assay type: in vivo, human; details: three 300 g portions per week (6.4 mmoles SMCSO each) for at least 4 weeks, n=9 per arm, p=0.005
Source text: A two arm parallel un-blinded short-term intervention with an enhanced dose of broccoli soups was undertaken. The study recruited men who had been diagnosed or were under investigation for prostate cancer and required a transperineal template biopsy as part of their standard clinical care.
Patients recruited onto this study were randomly allocated to one of two arms in which they were required to consume three portions of broccoli and stilton soup per week for at least four weeks prior to their biopsy (i) or to follow their normal diet until the operation date (ii). The broccoli and stilton soups contained glucoraphanin-enriched Beneforte® broccoli. The study was not blinded and involved tissue, blood and urine collection on the same day that patients were scheduled for their diagnostic biopsy. Their habitual intake of cruciferous vegetables and dietary supplements was assessed. […]
SMCSO was measured by following the method described by Bernaert and colleagues (Bernaert, N., et al., Influence of cultivar and harvest time on the amounts of isoalliin and methiin in leek (Allium ampeloprasum var. porrum). J Agric Food Chem, 2012. 60(44): p. 10910-9). […] After centrifugation, the supernatant was diluted with 0.1% formic acid in water, and analysed by LC-MS/MS using an Agilent 6490 mass spectrometer with a photodiode array detector. […]

[4] = SMCSO bioavailability from single dietary supplementation with Beneforte broccoli and stilton soup (plasma and urine over 24 h); assay type: in vivo, human
Source text: Exposure of prostate tissues to S-methylcysteine sulfoxide may occur either through the systemic circulation in the blood stream, or through urinary reflux. Indeed, urinary reflux into prostatic ducts is common knowledge in the field (Kirby R. S. et al. Intra-prostatic urinary reflux: an aetiological factor in abacterial prostatitis. British Journal of Urology 54, 729-731 (1982)). FIGS. 5 and 6 respectively show the plasma concentration and cumulative excretion of S-methylcysteine sulfoxide in urine following consumption of Beneforté™ broccoli (described, for example, in WO99/052345) and Stilton soup containing 1.2 mmoles of S-methylcysteine sulfoxide.
The change in plasma concentration of S-methylcysteine sulfoxide was recorded over 24 hours in ten patients.
Ten patients took part in this study. The total S-methylcysteine sulfoxide excreted represented 23% of that consumed.
A dietary intervention study was carried out on healthy subjects (n=10) whereby a single event of dietary supplementation was carried out with Beneforte™ broccoli and stilton soup, produced according to the recipe as described in Example 1, providing an effective SMCSO dose of 1.2 mmoles. This was followed by urine and blood collection over 24 h. Plasma and urinary concentrations of SMCSO were measured, see FIGS. 5 (plasma) and 6 (urine). SMCSO concentration in blood plasma increased from a baseline level of 0 μM at the start of the 24 h period to a maximum concentration of 24 μM one hour after consumption of the soup. […] The 24 h cumulative urinary concentration was over 100 μmoles SMCSO.

[5] = tested on: Human prostate PNT1A cells; assay: Cell assay of SMCSO uptake/accumulation in cells (HPLC of whole cell lysates); assay type: cell-based; details: 300 μM SMCSO
Method: PNT1A cells were treated with 300μM SMCSO and intracellular levels of SMCSO were quantified following incubation of between 1 h and 72 h. Data shown are means±SD (n=3).
Human prostate PNT1A cells were incubated with 300 μM SMCSO for up to 72 h in triplicate. Whole cell lysates were collected at regular intervals between 0 and 72 h and levels of SMCSO were quantified by HPLC as above. […] Uptake increases up to approximately 30% following 72 h of exposure to SMCSO.

For S-methylcysteine sulfoxide [SMCSO], the “cellular concentration of ATP” value [1] is listed as “reduced”, the “SMCSO excreted un-metabolised within urine” value [2] is listed as 6-8% and the “SMCSO accumulation in prostate biopsy tissue, intervention vs non-intervention arm” value [3] is listed as “increased accumulation”. The “concentration of SMCSO in urine (up to)” value ([4]; 0-2 h after consumption, 1.2 mmoles SMCSO) was “up to 164 uM”, the “likely concentration of SMCSO within a single urination” value ([4]; 0-2 h after consumption, estimate) was greater than 200 µM and the “blood plasma levels at the end of the 24 h period” value ([4]; 1.2 mmoles SMCSO, 24 h) was “remained elevated above baseline”. For the same substance, the “cumulative urinary SMCSO, mean” value ([4]; 2-4 hours after dietary supplementation, 1.2 mmoles SMCSO) was 71.5 µmol, the “24 h cumulative urinary SMCSO” value ([4]; 24 h, 1.2 mmoles SMCSO) was “over 100 μmoles” and the “S-methylcysteine sulfoxide excreted in urine (concentration, up to)” value ([4]; first 0-2 hours, soup containing 1.2 mmoles) was “up to 163.9 μM”. The “time of maximum plasma concentration after consumption of the soup” value ([4]; healthy subjects n=10, 1.2 mmoles SMCSO) was “one”, the “maximum SMCSO concentration in blood plasma” value ([4]; healthy subjects n=10, single soup portion providing 1.2 mmoles SMCSO, oral) was 24 µM and the “total S-methylcysteine sulfoxide excreted in urine as share of that consumed” value ([4]; ten patients, 1.2 mmoles, cumulative) was 23%. The “cellular uptake of SMCSO (speed)” value [5] was “rapid, as early as 1 h”, the “intracellular SMCSO uptake as % of exposure” value ([5]; 72 h of exposure) was “approximately 30%” and the “intracellular SMCSO level as % of the initial exposure levels” value ([5]; constant from 1 h for at least 24 h) was 10%.
